Measurements: patent US20250179210A1, “ANTI-CEACAM5 ANTIBODIES AND CONJUGATES AND USES THEREOF” (Merck Patent GmbH, priority 2022, published 2025)
“And” between values parts separate entries of the source, which are not always exact repeats. Identical values can stand only once.

Assays:
[1] = background; cited from earlier work
MKN45 cells = test: Internalization assay using Cell Discoverer (pHrodo labeled antibodies); assay type: cell-based, human
Excerpt: A relevant characteristic of an ADC is its internalization into a target-expressing cell and lysosomes, and thus internalization is a relevant property of antibodies to be used as part of ADCs. Antibody internalization rate into the late endosome and lysosome (low pH vesicles) can be monitored by directly labeling the antibodies with a pH-sensitive dye (pHrodo) which emits strong fluorescence at a pH lower than 6.0 upon excitation. This fluorescence can be imaged in the Cell-Discoverer7 (Zeiss) and internalization rate can be calculated.
To analyze the internalization rates of several antibodies, MKN45 cells were seeded in a 96 well, dark, flat clear bottom plate (Cellvis) at 25,000 cells/well. Cells were cultivated over night with 100 μl/well of RMPI-1640+10% FBS (Thermo). Cell media was removed, and cells were stained with 100 μl of 10 μg/ml Hoechst dye diluted in PBS×1 for 15 min at room temperature (RT) in the dark. Cells were then washed twice with PBS×1. […]
Internalization of pHrodo labeled antibodies into the late endosomes and lysosomes of cells was imaged by Cell-Discoverer7 (Zeiss) using fluorescence at excitation of 567 nm and emission detector of 592/25 nm. […]
Fluorescence of each well was recorded every 20 min for 20 h. Analysis of Sum Fluorescence Intensity per cell (SFI) was calculated by the Zen Software (ZEN3.1) and Excel analysis of linear regression.

[2] = test system: CEACAM5 from Macaca fascicularis; conditions: background; cited from earlier work
MKN-45 = test: Viability assay (Cell Titer-Glo); assay type: cell-based; conditions: Homo sapiens
Description: (§1) Cytotoxicity effects of the ADC on the cancer cell lines were measured by cell viability assays. Cells were seeded in a volume of 90 μL in 96-well plates the day before treatment. Test compounds (ADCs or free payloads) were formulated at 10-fold the starting concentration in cell culture medium. Test compounds were serial diluted (1:4) and 10 μL of each dilution was added to the cells in triplicates. Plates were cultured at 37° C. in a CO2 incubator for six days. For cell viability measurement, Cell Titer-Glo® reagent (Promega™ Corp, Madison, WI) was added to each well, and plates processed according to the manufacturer's instructions. Luminescence signals were measured using a Varioskan plate reader (Thermo Fisher). Luminescence readings were converted to % viability relative to untreated cells. Data was fitted with non-linear regression analysis, using log (inhibitor) vs. response, variable slope, 4-parameter fit equation using GraphPad Prism. […] Geometric mean values of IC50s derived from multiple experiments were calculated.
(§2) Cytotoxicity effects of the ADC on the cancer cell lines were measured by cell viability assays. […] Luminescence signals were measured using a Varioskan plate reader (Thermo Fisher). Luminescence readings were converted to % viability relative to untreated cells. […] Geometric mean values of IC50s derived from multiple experiments were calculated.

SNU-16 = test: Viability assay (Cell Titer-Glo); assay type: cell-based, human
Description: as §1, §2

SK-CO-1 = test: Viability assay (Cell Titer-Glo); assay type: cell-based; conditions: Homo sapiens
Description: as §1, §2

LS174T = test: Viability assay (Cell Titer-Glo); assay type: cell-based; conditions: Homo sapiens
Description: as §1, §2

MDA-MB-468 = test: Viability assay (Cell Titer-Glo); assay type: cell-based; conditions: Homo sapiens, Table 2
Description: Cytotoxicity effects of the ADC on the cancer cell lines were measured by cell viability assays. Cells were seeded in a volume of 90 μL in 96-well plates the day before treatment. Test compounds (ADCs or free payloads) were formulated at 10-fold the starting concentration in cell culture medium. Test compounds were serial diluted (1:4) and 10 μL of each dilution was added to the cells in triplicates. Plates were cultured at 37° C. in a CO2 incubator for six days. For cell viability measurement, Cell Titer-Glo® reagent (Promega™ Corp, Madison, WI) was added to each well, and plates processed according to the manufacturer's instructions. Luminescence signals were measured using a Varioskan plate reader (Thermo Fisher). Luminescence readings were converted to % viability relative to untreated cells. Data was fitted with non-linear regression analysis, using log (inhibitor) vs. response, variable slope, 4-parameter fit equation using GraphPad Prism. Data is shown as % relative cell viability vs. molar compound concentration, error bars indicating standard deviation (SD) of triplicates. Geometric mean values of IC50s derived from multiple experiments were calculated.

MDA-MB-231 = test: Viability assay (Cell Titer-Glo); assay type: cell-based; conditions: Homo sapiens, MDA-MB-231, 144 h; Table 2; six days; geometric mean; N ≥ 3; CEACAM5 Negative
Description: as §1, §2

Sequence of CEACAM5 from Macaca fascicularis (as listed by the source): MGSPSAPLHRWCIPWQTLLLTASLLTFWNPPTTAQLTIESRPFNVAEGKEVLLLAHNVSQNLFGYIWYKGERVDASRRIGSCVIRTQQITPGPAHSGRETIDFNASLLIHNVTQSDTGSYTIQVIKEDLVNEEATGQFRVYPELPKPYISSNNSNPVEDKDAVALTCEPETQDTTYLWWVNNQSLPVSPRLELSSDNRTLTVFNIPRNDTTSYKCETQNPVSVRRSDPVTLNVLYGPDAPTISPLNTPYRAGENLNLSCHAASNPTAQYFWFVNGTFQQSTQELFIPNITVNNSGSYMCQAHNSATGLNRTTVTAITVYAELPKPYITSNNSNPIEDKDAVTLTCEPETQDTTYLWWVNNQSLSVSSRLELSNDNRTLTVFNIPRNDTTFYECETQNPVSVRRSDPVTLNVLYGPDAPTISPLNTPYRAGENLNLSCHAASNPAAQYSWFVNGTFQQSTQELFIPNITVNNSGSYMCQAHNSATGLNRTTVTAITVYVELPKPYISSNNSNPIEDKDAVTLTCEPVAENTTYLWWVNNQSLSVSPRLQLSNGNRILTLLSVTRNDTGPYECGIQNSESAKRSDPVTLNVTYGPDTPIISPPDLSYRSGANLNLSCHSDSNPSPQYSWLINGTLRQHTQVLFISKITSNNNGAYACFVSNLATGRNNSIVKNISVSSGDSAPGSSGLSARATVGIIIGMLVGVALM

Labetuzumab govitecan
stability of the linker structure after parenteral application [1]: significant instability of the linker structure

hmn-14: known anti-CEACAM5 antibody as in labetuzumab govitecan; HC SEQ ID NO: 27, LC SEQ ID NO: 28 [reference compound]
average binding rate (MKN45 cells; average of the three slopes of the linear part of the curve): 22268±3060
Slope of Curve (MKN45 cells; linear part (700 to 1200 minutes) of fluorescence intensity per cell, 100 nM pHrodo labeled antibody, single wells): 23701 and 24350 and 18754
cross-reactivity with CEACAM5 from Macaca fascicularis [2]: not cross-reacting with CEACAM5 from Macaca fascicularis

CC[C@@]1(O)C(=O)OCc2c1cc1n(c2=O)Cc2c-1nc1cc(F)c(C)c3c1c2[C@@H](N)CC3 [PAYLOAD, (1S,9S)-1-Amino-9-ethyl-5-fluoro-1,2,3,9,12,15-hexahydro-9-hydroxy-4-methyl-10H,13H-benzo(de)pyrano(3′,4′:6,7)indolizino(1,2-b)quinoline-10,13-dione, reference compound]
IC50 (MKN-45; MKN-45, 144 h, Table 2, six days, geometric mean, N ≥ 3, CEACAM5 Positive): 0.89 nM
Emax (MKN-45; MKN-45, Table 2, at the highest tested compound concentration, read-out: MKN-45 maximal effect compared to untreated controls): -96%
IC50 (SNU-16; Homo sapiens, SNU-16, 144 h, Table 2, six days, geometric mean, N ≥ 3, CEACAM5 Positive): 0.44 nM
SNU-16 maximal effect compared to untreated controls (SNU-16; Table 3, at the highest tested compound concentration): (−99%)
IC50 (SK-CO-1; SK-CO-1, 144 h, Table 2, six days, geometric mean, N ≥ 4, CEACAM5 Positive): 0.25 nM
Emax (SK-CO-1; SK-CO-1, Table 2, at the highest tested compound concentration, read-out: SK-CO-1 maximal effect compared to untreated controls): -99%
IC50 (LS174T; 144 h, Table 2, six days, geometric mean, N ≥ 3, CEACAM5 Positive): 0.53 nM
Emax (LS174T; Table 2, at the highest tested compound concentration, read-out: LS174T maximal effect compared to untreated controls): -88%
IC50 (MDA-MB-468; MDA-MB-468, 144 h, six days, geometric mean, N ≥ 2, CEACAM5 Negative): 0.21 nM
Emax (MDA-MB-468; MDA-MB-468, at the highest tested compound concentration, read-out: MDA-MB-468 maximal effect compared to untreated controls): -99%
IC50 (MDA-MB-231): 0.93 nM
